ChEMBL document CHEMBL1909046, “DrugMatrix in vitro pharmacology data”

Columns and labels:
Substance-K receptor = target: T1, Substance-K receptor (Homo sapiens, UniProt P21452); type: cell membranes, CHO, Membrane; conditions: cho; further: in other assays of this panel Not Active means under 50% inhibition at 10 µM
T1 sequence (P21452 whole entry): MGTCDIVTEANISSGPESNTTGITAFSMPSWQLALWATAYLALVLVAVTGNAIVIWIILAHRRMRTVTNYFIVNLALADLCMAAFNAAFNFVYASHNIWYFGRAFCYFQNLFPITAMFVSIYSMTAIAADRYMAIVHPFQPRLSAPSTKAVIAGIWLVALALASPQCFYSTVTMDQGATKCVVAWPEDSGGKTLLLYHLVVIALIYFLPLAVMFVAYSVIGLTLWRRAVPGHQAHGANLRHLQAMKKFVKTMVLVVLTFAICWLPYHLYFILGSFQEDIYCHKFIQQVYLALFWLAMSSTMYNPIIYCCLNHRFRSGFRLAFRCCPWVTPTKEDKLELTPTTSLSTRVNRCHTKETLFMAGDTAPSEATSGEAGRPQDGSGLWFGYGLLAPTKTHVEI

[1] = target: T2, Muscarinic acetylcholine receptor M5 (Homo sapiens, UniProt P08912); type: cell membranes, CHO-K1, Membrane; conditions: for Ki: read-out: Ki; on all read-outs here: in other assays of this panel Not Active means under 50% inhibition at 10 µM
T2 sequence (P08912 whole entry): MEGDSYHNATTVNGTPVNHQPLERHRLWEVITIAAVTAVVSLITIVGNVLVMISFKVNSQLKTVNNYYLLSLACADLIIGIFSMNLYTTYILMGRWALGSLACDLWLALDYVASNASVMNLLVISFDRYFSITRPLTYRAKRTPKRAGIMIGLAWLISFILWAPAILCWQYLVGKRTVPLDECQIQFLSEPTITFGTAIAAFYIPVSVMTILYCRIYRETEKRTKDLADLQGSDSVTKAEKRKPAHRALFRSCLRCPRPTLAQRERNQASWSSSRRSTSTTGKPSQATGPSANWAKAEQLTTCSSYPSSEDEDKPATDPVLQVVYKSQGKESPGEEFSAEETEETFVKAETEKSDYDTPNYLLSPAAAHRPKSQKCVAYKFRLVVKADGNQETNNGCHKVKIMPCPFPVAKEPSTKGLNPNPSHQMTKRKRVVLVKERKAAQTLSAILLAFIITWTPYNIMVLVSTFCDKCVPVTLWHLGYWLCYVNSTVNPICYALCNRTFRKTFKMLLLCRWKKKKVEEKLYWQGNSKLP

Nitric oxide synthase 1 = Nitric oxide synthase 1 (Rattus norvegicus, UniProt P29476); type: tissue-based, Cerebellum; further: in other assays of this panel Not Active means under 50% inhibition at 10 µM
[2] = DRUGMATRIX: Phosphodiesterase PDE3 enzyme inhibition (substrate: [3H]cAMP + cAMP); type: tissue-based, Homo sapiens; conditions: platelet; Not Active = under 50% inhibition at 10 µM
Caspase-1 = target: T3, Caspase-1 (Homo sapiens, UniProt P29466); design: species or system Escherichia coli;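 further: Caspase-1 enzyme inhibition assay with a peptide substrate; in other assays of this panel Not Active means under 50% inhibition at 10 µM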
T3 sequence (P29466 whole entry): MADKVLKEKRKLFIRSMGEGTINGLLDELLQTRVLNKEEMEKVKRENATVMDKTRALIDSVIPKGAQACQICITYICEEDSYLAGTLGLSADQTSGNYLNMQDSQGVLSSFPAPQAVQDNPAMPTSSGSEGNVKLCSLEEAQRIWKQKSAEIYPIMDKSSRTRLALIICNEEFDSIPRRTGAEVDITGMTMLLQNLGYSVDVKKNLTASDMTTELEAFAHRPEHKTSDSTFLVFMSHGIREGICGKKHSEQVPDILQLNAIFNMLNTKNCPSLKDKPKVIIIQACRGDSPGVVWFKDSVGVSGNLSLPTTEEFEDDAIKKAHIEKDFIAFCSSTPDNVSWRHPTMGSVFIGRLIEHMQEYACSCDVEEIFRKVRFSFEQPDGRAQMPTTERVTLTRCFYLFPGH

[3] = DRUGMATRIX: Purinergic P2X radioligand binding (ligand: [3H] alpha, beta-Methylene-ATP); type: cell membranes, Oryctolagus cuniculus, New Zealand albino, Urinary bladder, Membrane; conditions: Not Active = under 50% inhibition at 10 µM
Estrogen receptor beta = Estrogen receptor beta (Homo sapiens, UniProt Q92731); conditions: sf9; further: in other assays of this panel Not Active means under 50% inhibition at 10 µM
Sequence of Estrogen receptor beta (Q92731 whole entry): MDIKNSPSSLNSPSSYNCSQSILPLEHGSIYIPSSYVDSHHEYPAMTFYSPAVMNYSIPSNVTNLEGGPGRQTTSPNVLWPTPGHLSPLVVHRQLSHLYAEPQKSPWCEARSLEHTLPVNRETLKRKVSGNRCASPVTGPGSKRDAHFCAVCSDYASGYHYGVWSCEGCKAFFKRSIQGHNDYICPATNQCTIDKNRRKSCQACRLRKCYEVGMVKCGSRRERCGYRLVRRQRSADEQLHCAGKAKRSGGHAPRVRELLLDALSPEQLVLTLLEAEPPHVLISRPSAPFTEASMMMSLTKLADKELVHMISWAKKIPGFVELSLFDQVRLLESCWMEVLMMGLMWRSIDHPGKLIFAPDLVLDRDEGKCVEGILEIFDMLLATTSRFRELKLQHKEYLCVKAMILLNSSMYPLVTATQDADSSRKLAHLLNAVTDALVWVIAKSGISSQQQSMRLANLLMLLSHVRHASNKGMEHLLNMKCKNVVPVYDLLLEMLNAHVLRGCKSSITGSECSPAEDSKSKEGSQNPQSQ

Sequence of Nitric oxide synthase 1 (P29476 whole entry): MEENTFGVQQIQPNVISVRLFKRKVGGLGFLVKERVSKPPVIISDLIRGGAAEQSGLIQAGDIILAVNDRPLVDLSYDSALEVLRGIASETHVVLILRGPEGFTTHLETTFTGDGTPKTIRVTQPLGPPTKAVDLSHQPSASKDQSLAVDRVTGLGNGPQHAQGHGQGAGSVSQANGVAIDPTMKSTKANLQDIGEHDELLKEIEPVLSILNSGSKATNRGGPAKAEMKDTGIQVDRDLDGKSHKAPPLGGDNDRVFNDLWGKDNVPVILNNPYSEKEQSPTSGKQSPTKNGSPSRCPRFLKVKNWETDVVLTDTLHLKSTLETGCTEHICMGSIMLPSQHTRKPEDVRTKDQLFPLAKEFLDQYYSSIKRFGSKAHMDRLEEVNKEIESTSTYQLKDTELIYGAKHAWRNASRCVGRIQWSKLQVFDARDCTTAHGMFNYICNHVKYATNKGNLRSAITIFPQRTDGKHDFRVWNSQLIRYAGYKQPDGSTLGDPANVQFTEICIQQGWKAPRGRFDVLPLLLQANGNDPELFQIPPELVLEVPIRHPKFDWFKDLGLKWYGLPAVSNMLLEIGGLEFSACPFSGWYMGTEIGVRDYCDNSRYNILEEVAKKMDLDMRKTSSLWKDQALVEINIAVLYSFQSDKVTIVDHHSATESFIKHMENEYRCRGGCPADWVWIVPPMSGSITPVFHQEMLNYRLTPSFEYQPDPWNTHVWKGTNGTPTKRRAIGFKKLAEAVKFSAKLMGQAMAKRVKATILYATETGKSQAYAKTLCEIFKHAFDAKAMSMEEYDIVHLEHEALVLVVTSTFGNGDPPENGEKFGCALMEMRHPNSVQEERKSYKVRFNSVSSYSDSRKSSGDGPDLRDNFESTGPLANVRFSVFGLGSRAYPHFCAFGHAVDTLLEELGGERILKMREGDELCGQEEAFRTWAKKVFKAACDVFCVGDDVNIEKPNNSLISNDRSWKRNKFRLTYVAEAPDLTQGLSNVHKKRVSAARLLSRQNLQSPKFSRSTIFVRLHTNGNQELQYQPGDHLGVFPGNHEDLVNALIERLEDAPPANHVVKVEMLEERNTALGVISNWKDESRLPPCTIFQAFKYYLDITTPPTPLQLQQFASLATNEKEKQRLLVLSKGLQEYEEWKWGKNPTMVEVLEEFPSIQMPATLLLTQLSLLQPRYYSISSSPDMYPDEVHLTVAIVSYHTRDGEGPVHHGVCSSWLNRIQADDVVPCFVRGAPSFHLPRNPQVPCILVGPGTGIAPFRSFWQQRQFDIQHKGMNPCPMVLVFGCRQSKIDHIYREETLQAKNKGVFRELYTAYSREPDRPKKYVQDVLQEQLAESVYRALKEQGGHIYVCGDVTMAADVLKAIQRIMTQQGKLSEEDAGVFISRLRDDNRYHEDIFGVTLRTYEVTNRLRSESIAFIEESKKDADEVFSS

SMILES	IC50 (Substance-K receptor)	IC50 ([1]; cho-k1)	IC50 (Nitric oxide synthase 1)	IC50 [2]	Ki [2]	IC50 (Caspase-1)	IC50 [3]	Ki [3]	IC50 (Estrogen receptor beta)	IC50 ([1]; read-out: IC50) [nM]	Ki [1] [nM]
CC1=NN(c2ccccc2)C(=O)C1 [EDARAVONE]	Not Active	Not Active	Not Active	Not Active	Not Active	Not Active	Not Active	Not Active	Not Active		
CC(C)C[C@H]1C(=O)N2CCC[C@H]2[C@]2(O)O[C@](NC(=O)[C@@H]3C=C4c5cccc6[nH]cc(c56)C[C@H]4N(C)C3)(C(C)C)C(=O)N12 [ERGOCRYPTINE]	Not Active	Not Active	Not Active	Not Active	Not Active	Not Active	Not Active	Not Active	Not Active		
C[C@]12CC[C@@H]3c4ccc(O)cc4CC[C@H]3[C@@H]1C[C@@H](O)[C@@H]2O [ESTRIOL]	Not Active	Not Active	Not Active	Not Active	Not Active	Not Active	Not Active	Not Active	Not Active		
C#C[C@]1(O)CC[C@H]2[C@@H]3CCC4=CC(=O)CC[C@]4(C)[C@H]3CC[C@@]21C [ETHISTERONE]	Not Active	Not Active	Not Active	Not Active	Not Active	Not Active	Not Active	Not Active	Not Active		
CC(C)(C(=O)O)c1ccc(C(O)CCCN2CCC(C(O)(c3ccccc3)c3ccccc3)CC2)cc1 (centres undefined) [FEXOFENADINE]	Not Active	Not Active	Not Active	Not Active	Not Active	Not Active	Not Active	Not Active	Not Active		
CN1CCN(c2c(F)cc3c(=O)c(C(=O)O)cn(CCF)c3c2F)CC1 [FLEROXACIN]	Not Active	Not Active	Not Active	Not Active	Not Active	Not Active	Not Active	Not Active	Not Active		
O=c1[nH]c(=O)n([C@H]2C[C@H](O)[C@@H](CO)O2)cc1F [FLOXURIDINE]	Not Active	Not Active	Not Active	Not Active	Not Active	Not Active	Not Active	Not Active	Not Active		
COC(=O)Nc1nc2cc(C(=O)c3ccc(F)cc3)ccc2[nH]1 [FLUBENDAZOLE]	Not Active	Not Active	Not Active	Not Active	Not Active	Not Active	Not Active	Not Active	Not Active		
CC(=O)OCC(=O)[C@@]1(O)CC[C@H]2[C@@H]3CCC4=CC(=O)CC[C@]4(C)[C@@]3(F)[C@@H](O)C[C@@]21C [FLUDROCORTISONE ACETATE]	Not Active	Not Active	Not Active	Not Active	Not Active	Not Active	Not Active	Not Active	Not Active		
CC(=O)OCC(=O)[C@@]12OC(C)(C)O[C@@H]1C[C@H]1[C@@H]3C[C@H](F)C4=CC(=O)C=C[C@]4(C)[C@@]3(F)[C@@H](O)C[C@@]12C [FLUOCINONIDE]	Not Active	Not Active	Not Active	Not Active	Not Active	Not Active	Not Active	Not Active	Not Active		
Cc1ccc(C)c(OCCCC(C)(C)C(=O)O)c1 [GEMFIBROZIL]	Not Active	Not Active	Not Active	Not Active	Not Active	Not Active	Not Active	Not Active	Not Active		
CCC1=C(C)CN(C(=O)NCCc2ccc(S(=O)(=O)NC(=O)N[C@H]3CC[C@H](C)CC3)cc2)C1=O [GLIMEPIRIDE]	Not Active	Not Active	Not Active	Not Active	Not Active	Not Active	Not Active	Not Active	Not Active		
Nc1cc(-c2ccncc2)c[nH]c1=O [INAMRINONE]	Not Active	Not Active	Not Active	Not Active	Not Active	Not Active	Not Active	Not Active	Not Active		
CCCCC1=NC2(CCCC2)C(=O)N1Cc1ccc(-c2ccccc2-c2nnn[nH]2)cc1 [IRBESARTAN]	Not Active	Not Active	Not Active	Not Active	Not Active	Not Active	Not Active	Not Active	Not Active		
CN1CCC(=C2c3ccccc3CC(=O)c3sccc32)CC1 [KETOTIFEN]	Not Active		Not Active	Not Active	Not Active	Not Active	Not Active	Not Active	Not Active	374	269
N[C@@H](Cn1ccc(=O)c(O)c1)C(=O)O [L-MIMOSINE]	Not Active	Not Active	Not Active	Not Active	Not Active	Not Active	Not Active	Not Active	Not Active		
CN1CCCC(CN2c3ccccc3Sc3ccccc32)C1 (centres undefined) [MEPAZINE]	Not Active		Not Active	Not Active	Not Active	Not Active	Not Active	Not Active	Not Active	40	28
Cc1cccc(C)c1NC(=O)C1CCCCN1C (centres undefined) [MEPIVACAINE]	Not Active	Not Active	Not Active	Not Active	Not Active	Not Active	Not Active	Not Active	Not Active		
CC(C)(C)NCC(O)COc1cccc2c1CC(O)C(O)C2 (centres undefined) [NADOLOL]	Not Active	Not Active	Not Active	Not Active	Not Active	Not Active	Not Active	Not Active	Not Active		
C[C@]12CC[C@H]3[C@@H](CCC4=CC(=O)CC[C@@H]43)[C@@H]1CC[C@@H]2O [NANDROLONE]	Not Active	Not Active	Not Active	Not Active	Not Active	Not Active	Not Active	Not Active	Not Active		
C[C@@H]1C/C=C/C=C/C=C/C=C/[C@H](O[C@@H]2O[C@H](C)[C@@H](O)[C@H](N)[C@@H]2O)C[C@@H]2O[C@](O)(C[C@@H](O)C[C@H]3O[C@@H]3/C=C/C(=O)O1)C[C@H](O)[C@H]2C(=O)O [NATAMYCIN]	Not Active	Not Active	Not Active	Not Active	Not Active	Not Active	Not Active	Not Active	Not Active		
NC(=O)c1cccnc1 [NIACINAMIDE]	Not Active	Not Active	Not Active	Not Active	Not Active	Not Active	Not Active	Not Active	Not Active		
CS(=O)(=O)Nc1ccc([N+](=O)[O-])cc1Oc1ccccc1 [NIMESULIDE]	Not Active	Not Active	Not Active	Not Active	Not Active	Not Active	Not Active	Not Active	Not Active		
